Source: PubChem BioAssay (NCI)
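All cell lines were grown in 96-well plates and treated with compound for 48 hours. TGI: concentration producing complete growth inhibition.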

How the values were obtained:
Experiment in all cases: NCI tumour cell line growth inhibition, 48 h
[1] = system: 786-0 renal
[2] = system: A549 NSCLC
[3] = system: ACHN renal
[4] = system: CAKI-1 renal
[5] = system: COLO 205 colon
[6] = system: DLD-1 colon
[7] = system: DMS 114 small cell lung
[8] = system: DMS 273 small cell lung
[9] = system: EKVX NSCLC
[10] = system: HCC-2998 colon
[11] = system: HCT-116 colon
[12] = system: HCT-15 colon
[13] = system: HOP-18 NSCLC
[14] = system: HT29 colon
[15] = system: IGROV1 ovarian
[16] = system: K-562 leukemia
[17] = system: KM12 colon
[18] = system: KM20L2 colon
[19] = system: LXFL 529 NSCLC
[20] = system: M14 melanoma
[21] = system: M19-MEL melanoma
[22] = system: MOLT-4 leukemia
[23] = system: NCI-H226 lung
[24] = system: NCI-H23 lung
[25] = system: NCI-H460 lung
[26] = system: NCI-H522 lung
[27] = system: OVCAR-3 ovarian
[28] = system: OVCAR-4 ovarian
[29] = system: OVCAR-5 ovarian
[30] = system: OVCAR-8 ovarian
[31] = system: RPMI-8226 leukemia
[32] = system: RXF 393 renal
[33] = system: RXF-631 renal
[34] = system: SF-295 CNS
[35] = system: SF-539 CNS
[36] = system: SK-MEL-2 melanoma
[37] = system: SK-MEL-28 melanoma
[38] = system: SK-MEL-5 melanoma
[39] = system: SK-OV-3 ovarian
[40] = system: SN12C renal
[41] = system: SNB-19 CNS
[42] = system: SNB-75 CNS
[43] = system: SNB-78 CNS
[44] = system: SR leukemia
[45] = system: SW-620 colon
[46] = system: TK-10 renal
[47] = system: U251 CNS
[48] = system: UACC-257 melanoma
[49] = system: UACC-62 melanoma
[50] = system: UO-31 renal
[51] = system: XF 498 CNS
[52] = system: A498 renal
[53] = system: CCRF-CEM leukemia
[54] = system: HL-60(TB) leukemia
[55] = system: HOP-62 NSCLC
[56] = system: HOP-92 NSCLC
[57] = system: LOX IMVI melanoma
[58] = system: MALME-3M melanoma
[59] = system: MCF7 breast
[60] = system: NCI/ADR-RES ovarian
[61] = system: P388 leukemia
[62] = system: P388/ADR leukemia
[63] = system: SF-268 CNS
[64] = system: SN12K1 renal

## CC(C)(C)c1cc(C(O)(C(F)(F)F)C(F)(F)F)c2c(c1)C(C(F)(F)F)(C(F)(F)F)OC(C(C)(C)C)N2 (stereo not drawn)
[1]
  TGI: 11.9 µM
[2]
  TGI: 13.6 µM
[3]
  TGI: 10.2 µM
[4]
  TGI: 8.45 µM
[5]
  TGI: 13.5 µM
[6]
  TGI: 16.5 µM
[7]
  TGI: 8.95 µM
[8]
  TGI: 11.1 µM
[9]
  TGI: 17.1 µM
[10]
  TGI: 15.7 µM
[11]
  TGI: 12.8 µM
[12]
  TGI: 11.7 µM
[13]
  TGI: 9.34 µM
[14]
  TGI: 9.37 µM
[15]
  TGI: 18 µM
[16]
  TGI: 11 µM
[17]
  TGI: 14 µM
[18]
  TGI: 11.5 µM
[19]
  TGI: 11.7 µM
[20]
  TGI: 18.2 µM
[21]
  TGI: 12.9 µM
[22]
  TGI: 5.34 µM
[23]
  TGI: 10.2 µM
[24]
  TGI: 8.6 µM
[25]
  TGI: 9.01 µM
[26]
  TGI: 7.39 µM
[27]
  TGI: 9.43 µM
[28]
  TGI: 18 µM
[29]
  TGI: 23.3 µM
[30]
  TGI: 13.1 µM
[31]
  TGI: 6.74 µM
[32]
  TGI: 6.51 µM
[33]
  TGI: 19 µM
[34]
  TGI: 8.04 µM
[35]
  TGI: 6.68 µM
[36]
  TGI: 10.3 µM
[37]
  TGI: 18.8 µM
[38]
  TGI: 3.6 µM
[39]
  TGI: 5.58 µM
[40]
  TGI: 14.6 µM
[41]
  TGI: 19.3 µM
[42]
  TGI: 11.7 µM
[43]
  TGI: 14.2 µM
[44]
  TGI: 7.2 µM
[45]
  TGI: 13.8 µM
[46]
  TGI: 11.9 µM
[47]
  TGI: 10.8 µM
[48]
  TGI: 9.48 µM
[49]
  TGI: 14.4 µM
[50]
  TGI: 19.3 µM
[51]
  TGI: 1.84 µM

## O=NN(CCCl)C(=O)NC1CCC(O)CC1 (stereo not drawn)
[52]
  TGI: > 100 µM
[2]
  TGI: > 100 µM
[4]
  TGI: > 89.6 µM
[53]
  TGI: 52.2 µM
[5]
  TGI: > 72.9 µM
[6]
  TGI: > 77 µM
[7]
  TGI: 51.5 µM
[8]
  TGI: > 100 µM
[9]
  TGI: > 100 µM
[10]
  TGI: > 100 µM
[11]
  TGI: > 94.4 µM
[12]
  TGI: 58.2 µM
[54]
  TGI: 41.9 µM
[13]
  TGI: > 90.9 µM
[55]
  TGI: > 100 µM
[56]
  TGI: 31.9 µM
[14]
  TGI: > 100 µM
[15]
  TGI: > 100 µM
[16]
  TGI: > 77.6 µM
[17]
  TGI: > 100 µM
[18]
  TGI: > 100 µM
[57]
  TGI: > 60.6 µM
[21]
  TGI: > 91 µM
[58]
  TGI: > 71.1 µM
[59]
  TGI: > 100 µM
[22]
  TGI: 68.4 µM
[23]
  TGI: > 100 µM
[24]
  TGI: > 100 µM
[25]
  TGI: > 100 µM
[26]
  TGI: 55.4 µM
[60]
  TGI: 69.4 µM
[27]
  TGI: > 89.8 µM
[28]
  TGI: > 100 µM
[29]
  TGI: > 100 µM
[30]
  TGI: > 100 µM
[61]
  TGI: 20.5 µM
[62]
  TGI: 18 µM
[31]
  TGI: 34.9 µM
[32]
  TGI: > 71.5 µM
[63]
  TGI: 43.3 µM
[34]
  TGI: > 80.2 µM
[35]
  TGI: > 61 µM
[36]
  TGI: > 100 µM
[37]
  TGI: 63.4 µM
[38]
  TGI: > 100 µM
[39]
  TGI: > 100 µM
[40]
  TGI: > 100 µM
[64]
  TGI: > 100 µM
[41]
  TGI: > 100 µM
[42]
  TGI: > 79.7 µM
[43]
  TGI: 63.3 µM
[45]
  TGI: > 100 µM
[47]
  TGI: > 100 µM
[48]
  TGI: > 85.2 µM
[49]
  TGI: 40.4 µM
[50]
  TGI: > 100 µM
[51]
  TGI: 60.3 µM
